These results are taken from patent publication US20140051575A1 (priority 2011, published 2014).

Series [1] can be described thus: Measurement of logP values by HPLC on reversed phase columns (EEC directive 79/831 Annex V.A8). The series is classed as physicochemical. The following applies: pH 2.7, 0.1% formic acid in water / acetonitrile gradient, calibration with alkan-2-ones. The procedure:
Measurement of logP values was performed according EEC directive 79/831 Annex V.A8 by HPLC (High Performance Liquid Chromatography) on reversed phase columns with the following methods:
Measurement of LC-MS was done at pH 2.7 with 0.1% formic acid in water and with acetonitrile (contains 0.1% formic acid) as eluent with a linear gradient from 10% acetonitrile to 95% acetonitrile.
Calibration was done with not branched alkan2-ones (with 3 to 16 carbon atoms) with known logP-values (measurement of logP values using retention times with linear interpolation between successive alkanones). lambda-maX-values were determined using UV-spectra from 200 nm to 400 nm and the peak values of the chromatographic signals.

For another series, the system named is Phytophthora infestans. The series is classed as in vivo. The following applies: tomato plants, preventive spray, 500 ppm of active ingredient, evaluated 7 days after inoculation; 0% = untreated control, 100% = no disease.
In another series the test system is Plasmopara viticola. As to the kind of experiment: Plasmopara test (grapevines)/preventive. The conditions noted are these: preventive spray, 10 ppm of active ingredient, evaluated 6 days after inoculation, 0% = untreated control, 100% = no disease. It is filed as in vivo. On the procedure: To produce a suitable preparation of active compound, 1 part by weight of active compound is mixed with the stated amounts of solvent and emulsifier, and the concentrate is diluted with water to the desired concentration.
To test for preventive activity, young plants are sprayed with the preparation of active compound at the stated rate of application. After the spray coating has dried on, the plants are inoculated with an aqueous spore suspension of Plasmopara viticola and then remain for 1 day in an incubation cabinet at approximately 20° C. and a relative atmospheric humidity of 100%. The plant is subsequently placed for 4 days in a greenhouse at approximately 21° C. and a relative atmospheric humidity of approximately 90%. The plants are then misted and placed for 1 day in an incubation cabinet.
The test is evaluated 6 days after the inoculation. 0% means an efficacy which corresponds to that of the untreated control, while an efficacy of 100% means that no disease is observed.

The structures appear in SMILES notation.

With `Cn1nnnc1C(=NOCc1cccc(NC(=O)COCC2CCC2)n1)c1ccccc1` [Example 4], in series [1], the “Log P” value is given as 3.83. Moreover, the Eff. % with Phytophthora infestans was determined as 97%; with Plasmopara viticola it was 80%.
Take `CC(OCC1CC1)C(=O)Nc1ccc(F)c(CON=C(c2ccccc2)c2nnnn2C)n1` (stereo not shown) [Example 9]: the “Log P” value in series [1] is reported as 3.71. The Eff. % in the series on Phytophthora infestans came to 100%; with Plasmopara viticola it was 89%.
For `CC(OCC1CCC1)C(=O)Nc1cccc(CON=C(c2ccccc2)c2nnnn2C)n1` (stereo not shown) [Example 12], in series [1], the “Log P” value is recorded as 4.16. Further, the Eff. % in the series on Phytophthora infestans is recorded as 100%; with Plasmopara viticola it was 84%.
On to `Cn1nnnc1C(=NOCc1csc(NC(=O)COCC2CC2)n1)c1ccccc1` [Example 13], for which, in series [1], the “Log P” value stood at 3.04. For the same molecule, in the series with Plasmopara viticola, the Eff. % came to 79%.
Take `Cn1nnnc1C(=NOCc1csc(NC(=O)COCC2CCC2)n1)c1ccccc1` [Example 15]: the “Log P” value in series [1] amounted to 3.52. Besides, the Eff. % in the series on Phytophthora infestans and in the series with Plasmopara viticola was 100% each time.
Regarding `Cn1nnnc1C(=NOCc1csc(NC(=O)COCC2CCCC2)n1)c1ccccc1` [Example 16], in series [1], the “Log P” value is listed as 3.9. Also, the results for the Eff. % in the series with Phytophthora infestans and in the series with Plasmopara viticola were 97% and 90%, respectively.
Turning to `Cc1nnnn1C(=NOCc1csc(NC(=O)COCC2CC2)n1)c1ccccc1` [Example 33], the “Log P” value in series [1] is reported as 3.11. This molecule yielded an Eff. % with Plasmopara viticola of 94%.
The corresponding values for `CC(OCc1ccccc1)C(=O)Nc1nc(CON=C(c2ccccc2)c2nnnn2C)cs1` (stereo not shown) [Example 49] are 3.71 and 92%.
As for `Cc1ccccc1CSCC(=O)Nc1cccc(CON=C(c2ccccc2)c2nnnn2C)n1` [Example 65], the Eff. % in the series with Plasmopara viticola worked out at 84%.
As to `Cn1nnnc1C(=NOCc1cccc(NC(=O)CSCC2CC2)n1)c1ccccc1` [Example 67], in series [1], the “Log P” value is 3.51. Moreover, the Eff. % in the series on Plasmopara viticola amounted to 78%.
Take `Cn1nnnc1C(=NOCc1csc(NC(=O)CSC2CCCCC2)n1)c1ccccc1` [Example 76]: the “Log P” value in series [1] is 3.92. The same molecule yielded an Eff. % with Phytophthora infestans of 100%.
As to `Cn1nnnc1C(=NOCc1csc(NC(=O)CSC2CCCC2)n1)c1ccccc1` [Example 77], in series [1], the “Log P” value was 3.65. The molecule further came in with an Eff. % in the series on Phytophthora infestans of 95%.
In the same order, the values of `Cc1ccccc1CSCC(=O)Nc1cccc(CON=C(c2ccccc2)n2nnnc2C)n1` [Example 78] are 4.06 and 100%.
In the same order, the values of `Cc1nnnn1C(=NOCc1cccc(NC(=O)CSC2CCCCC2)n1)c1ccccc1` [Example 79] are 4.26 and 100%.
Take `Cc1nnnn1C(=NOCc1cccc(NC(=O)CSC2CCCC2)n1)c1ccccc1` [Example 80]: in series [1], the “Log P” value was 3.92. In the series with Phytophthora infestans, the Eff. % was determined as 100%.
For `Cc1nnnn1C(=NOCc1csc(NC(=O)CSCCC(C)C)n1)c1ccccc1` [Example 81], the “Log P” value in series [1] was found to be 3.99. The same molecule displayed an Eff. % in the series on Phytophthora infestans of 95%.
On to `Cc1nnnn1C(=NOCc1csc(NC(=O)C(C)SCc2ccccc2)n1)c1ccccc1` (stereo not shown) [Example 82], for which, in series [1], the “Log P” value was determined as 3.85. Moreover, the Eff. % in the series on Phytophthora infestans came out at 100%.
In the same order, the values of `C=CCSCC(=O)Nc1nc(CON=C(c2ccccc2)n2nnnc2C)cs1` [Example 83] are 3.15 and 88%.
As for `Cc1nnnn1C(=NOCc1csc(NC(=O)CSCc2cccs2)n1)c1ccccc1` [Example 84], the “Log P” value in series [1] amounted to 3.51. In the series with Phytophthora infestans, this molecule returned an Eff. % of 98%.
In the same order, the values of `C=CCSC(C)C(=O)Nc1nc(CON=C(c2ccccc2)n2nnnc2C)cs1` (stereo not shown) [Example 85] are 3.35 and 98%.
In the same order, the values of `Cc1nnnn1C(=NOCc1csc(NC(=O)CSCc2ccccc2)n1)c1ccccc1` [Example 86] are 3.57 and 93%.
Consider `Cc1nnnn1C(=NOCc1csc(NC(=O)CSCC2CC2)n1)c1ccccc1` [Example 87], for which, in series [1], the “Log P” value came out at 3.31. Also, the Eff. % with Phytophthora infestans is 100%.
As to `Cc1nnnn1C(=NOCc1csc(NC(=O)CSC2CCCCC2)n1)c1ccccc1` [Example 89], in series [1], the “Log P” value turned out to be 3.96. The Eff. % with Phytophthora infestans came to 100%.
The corresponding values for `Cc1nnnn1C(=NOCc1csc(NC(=O)CSC2CCCC2)n1)c1ccccc1` [Example 90] are 3.65 and 95%.
Regarding `Cn1nnnc1C(=NOCc1cccc(NC(=O)C2Cc3ccccc32)n1)c1ccccc1` (stereo not shown) [Example 91], in series [1], the “Log P” value is 3.58. Further, in the series with Plasmopara viticola, the Eff. % came out at 77%.
As for `Cn1nnnc1C(=NOCc1cccc(NC(=O)C2CC2c2ncc(C(F)(F)F)cc2Cl)n1)c1ccccc1` (stereo not shown) [Example 92], the “Log P” value in series [1] worked out at 4.54. The Eff. % in the series on Phytophthora infestans was found to be 98%.
In the same order, the values of `Cn1nnnc1C(=NOCc1csc(NC(=O)C2CC2c2ncc(C(F)(F)F)cc2Cl)n1)c1ccccc1` (stereo not shown) [Example 93] are 4.37 and 98%.
Turning to `Cn1nnnc1C(=NOCc1cccc(NC(=O)C(C)(C)CSC2CCCCC2)n1)c1ccccc1` [Example 94], in series [1], the lipophilicity (Log P) is listed as 4.98. The Eff. % in the series on Phytophthora infestans came to 100%.
On to `CC(OCC(=O)Nc1cccc(CON=C(c2ccccc2)c2nnnn2C)n1)c1ccccc1` (stereo not shown) [Example 95], for which, in series [1], the “Log P” value turned out to be 3.94. This molecule also displayed an Eff. % in the series with Phytophthora infestans of 100%.
Consider `CC(COCc1ccccc1)C(=O)Nc1cccc(CON=C(c2ccccc2)c2nnnn2C)n1` (stereo not shown) [Example 97], for which the “Log P” value in series [1] is listed as 3.85. Moreover, in the series with Phytophthora infestans, the Eff. % is given as 100%.
On to `Cn1nnnc1C(=NOCc1cccc(NC(=O)CCOCc2ccccc2)n1)c1ccccc1` [Example 99], for which the “Log P” value in series [1] is recorded as 3.48. Besides, in the series with Phytophthora infestans, the Eff. % was 90%.
In the same order, the values of `Cn1nnnc1C(=NOCc1cccc(NC(=O)CCSCc2ccc(F)cc2)n1)c1ccccc1` [Example 100] are 3.87 and 95%.
As to `Cn1nnnc1C(=NOCc1cccc(NC(=O)CCSCc2ccccc2)n1)c1ccccc1` [Example 101], in series [1], the “Log P” value is 3.83. Besides, the Eff. % in the series on Phytophthora infestans is reported as 90%.
In the same order, the values of `Cn1nnnc1C(=NOCc1csc(NC(=O)C(C)(C)CSC2CCCCC2)n1)c1ccccc1` [Example 102] are 4.77 and 100%.
As to `COC(C)CC(CC(=O)Nc1nc(CON=C(c2ccccc2)c2nnnn2C)cs1)OC` (stereo not shown) [Example 103], the “Log P” value in series [1] stood at 2.78. The Eff. % in the series on Phytophthora infestans is given as 95%.
The corresponding values for `CC(COCc1ccccc1)C(=O)Nc1nc(CON=C(c2ccccc2)c2nnnn2C)cs1` (stereo not shown) [Example 104] are 3.65 and 100%.
As for `CC(OCC(=O)Nc1nc(CON=C(c2ccccc2)c2nnnn2C)cs1)c1ccccc1` (stereo not shown) [Example 105], in series [1], the “Log P” value is reported as 3.7. The same molecule returned an Eff. % in the series with Phytophthora infestans of 95%.
As to `Cn1nnnc1C(=NOCc1csc(NC(=O)CCOCc2ccccc2)n1)c1ccccc1` [Example 106], the “Log P” value in series [1] is on record as 3.33. Besides, the Eff. % in the series with Phytophthora infestans came to 93%.
The corresponding values for `Cn1nnnc1C(=NOCc1csc(NC(=O)CCSCc2ccc(F)cc2)n1)c1ccccc1` [Example 107] are 3.73 and 95%.
Turning to `Cn1nnnc1C(=NOCc1csc(NC(=O)CCSCc2ccccc2)n1)c1ccccc1` [Example 108], the “Log P” value in series [1] worked out at 3.69. This molecule had an Eff. % in the series with Phytophthora infestans of 90%.
Consider `Cc1nnnn1C(=NOCc1cccc(NC(=O)C(C)(C)CSC2CCCCC2)n1)c1ccccc1` [Example 109], for which the “Log P” value in series [1] was determined as 5.08. In the series on Phytophthora infestans, this molecule yielded an Eff. % of 95%.
Consider `Cc1nnnn1C(=NOCc1cccc(NC(=O)CCOCc2ccccc2)n1)c1ccccc1` [Example 110], for which the “Log P” value in series [1] is given as 3.55. This molecule also came in with an Eff. % with Phytophthora infestans of 85%.
The corresponding values for `Cc1nnnn1C(=NOCc1cccc(NC(=O)CCSCc2ccc(F)cc2)n1)c1ccccc1` [Example 111] are 3.92 and 90%.
Turning to `Cc1nnnn1C(=NOCc1cccc(NC(=O)CCSCc2ccccc2)n1)c1ccccc1` [Example 112], in series [1], the “Log P” value was determined as 3.89. The same molecule returned an Eff. % in the series with Phytophthora infestans of 88%.
In the same order, the values of `Cc1nnnn1C(=NOCc1csc(NC(=O)C(C)(C)CSC2CCCCC2)n1)c1ccccc1` [Example 113] are 4.85 and 98%.
On to `Cc1nnnn1C(=NOCc1csc(NC(=O)CCOCc2ccccc2)n1)c1ccccc1` [Example 114], for which the “Log P” value in series [1] is reported as 3.37. For the same molecule, the Eff. % with Phytophthora infestans is on record as 93%.
`Cc1nnnn1C(=NOCc1csc(NC(=O)CCSCc2ccc(F)cc2)n1)c1ccccc1` [Example 115]: the “Log P” value in series [1] worked out at 3.78. Moreover, the Eff. % in the series with Phytophthora infestans came out at 80%.
In the same order, the values of `Cc1nnnn1C(=NOCc1csc(NC(=O)CCSCc2ccccc2)n1)c1ccccc1` [Example 116] are 3.73 and 80%.

As a reminder, the Log P is a log measure of how a compound divides between an organic and an aqueous phase. High values mean a more lipophilic compound, low ones a more hydrophilic compound.
